Read-outs that look alike come from different tables or passages of the source.
Columns and labels:
rSmTAChE [1] = target: T1, rSmTAChE (Schistosoma mansoni, UniProt A0A3Q0KMM5); test: biochemical
[2] = target: recombinant human acetylcholinesterase, rHsAChE (Homo sapiens, UniProt P22303); test: biochemical
rSmTAChE [3] = target: T1, rSmTAChE; assay type: biochemical
[4] = read-out: HTS/rSmTAChE Inhibition (Ave, %)
[5] = dose response analysis of Drug Repurposing Hub hits against rHsAChE
[6] = read-out: rSmTAChE HTS Inhibition (Ave, %)
[7] = read-out: qAC50 (IC50), rHsAChE
[8] = read-out: qAC50 (IC50), rSmTAChE
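Wherever Inhibition (%) (Average) is given: mostly 20 µM final but a few compounds at 5 or 10 µM.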
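Wherever Inhibition (%) Replicate A is given: mostly 20 µM final but a few compounds at 5 or 10 µM.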
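Wherever Inhibition (%) Replicate B is given: mostly 20 µM final but a few compounds at 5 or 10 µM.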

Sequence of recombinant human acetylcholinesterase, rHsAChE (P22303 32-614): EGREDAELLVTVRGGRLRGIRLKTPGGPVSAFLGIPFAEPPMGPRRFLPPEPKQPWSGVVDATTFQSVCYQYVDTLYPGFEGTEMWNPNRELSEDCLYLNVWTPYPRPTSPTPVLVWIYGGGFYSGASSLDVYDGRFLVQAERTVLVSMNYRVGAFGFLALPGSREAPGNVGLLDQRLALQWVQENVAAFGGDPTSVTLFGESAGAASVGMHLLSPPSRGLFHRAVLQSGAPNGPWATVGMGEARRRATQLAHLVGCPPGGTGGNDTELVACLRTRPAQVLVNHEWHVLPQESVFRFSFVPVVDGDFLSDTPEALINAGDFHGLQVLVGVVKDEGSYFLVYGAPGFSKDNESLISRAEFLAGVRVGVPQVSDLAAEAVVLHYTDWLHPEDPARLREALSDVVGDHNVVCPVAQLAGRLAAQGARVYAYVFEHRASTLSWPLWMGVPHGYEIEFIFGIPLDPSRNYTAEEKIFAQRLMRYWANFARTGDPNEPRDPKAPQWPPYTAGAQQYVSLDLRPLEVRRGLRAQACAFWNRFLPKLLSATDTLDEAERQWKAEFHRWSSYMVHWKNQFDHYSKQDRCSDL
T1 sequence (A0A3Q0KMM5 27-661 limits assumed): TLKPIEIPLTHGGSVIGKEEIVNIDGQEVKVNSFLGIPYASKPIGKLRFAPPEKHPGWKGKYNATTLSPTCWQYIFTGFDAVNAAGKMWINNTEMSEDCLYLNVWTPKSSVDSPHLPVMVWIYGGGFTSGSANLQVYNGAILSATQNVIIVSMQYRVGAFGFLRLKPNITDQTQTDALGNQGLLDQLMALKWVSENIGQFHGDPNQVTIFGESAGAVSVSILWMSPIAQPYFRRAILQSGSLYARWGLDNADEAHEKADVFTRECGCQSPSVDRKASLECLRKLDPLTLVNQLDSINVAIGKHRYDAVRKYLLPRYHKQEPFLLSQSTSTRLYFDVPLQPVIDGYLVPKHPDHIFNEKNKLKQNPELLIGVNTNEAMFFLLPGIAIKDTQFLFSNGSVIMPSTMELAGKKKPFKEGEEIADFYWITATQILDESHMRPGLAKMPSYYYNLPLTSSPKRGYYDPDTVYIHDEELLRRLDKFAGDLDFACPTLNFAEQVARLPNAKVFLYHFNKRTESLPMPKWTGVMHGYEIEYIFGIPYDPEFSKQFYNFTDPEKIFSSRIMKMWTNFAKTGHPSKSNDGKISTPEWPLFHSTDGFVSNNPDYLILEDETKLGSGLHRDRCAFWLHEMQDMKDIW

SMILES	Data Mode (curve class), rHsAChE [2, 5]	Data Mode (curve class), rSmTAChE (rSmTAChE [3])	Inhibition (%) (Average) (rSmTAChE [1])	Inhibition (%) Replicate A (rSmTAChE [1]) [%]	Inhibition (%) Replicate B (rSmTAChE [1]) [%]	also measured
Cc1cc(Nc2ncc(Cl)c(Nc3ccccc3S(=O)(=O)C(C)C)n2)c(OC(C)C)cc1C1CCNCC1 [Ceritinib, reference compound]	decreasing (weakly active)	decreasing				inhibition at 20 µM (rSmTAChE [1]; [4]): 67%; SI (Hs/Sm) (rSmTAChE [3]): 1.58
C[C@H](Cc1ccc(O)c(O)c1)[C@@H](C)Cc1ccc(O)c(O)c1 [Masoprocol, reference compound]	decreasing (weakly active)	decreasing				inhibition at 20 µM (rSmTAChE [1]; [4]): 76.4%; SI (Hs/Sm) (rSmTAChE [3]): 2.32
CC(C)(Sc1cc(C(C)(C)C)c(O)c(C(C)(C)C)c1)Sc1cc(C(C)(C)C)c(O)c(C(C)(C)C)c1 [Probucol, reference compound]	decreasing	decreasing (weakly active)				inhibition at 20 µM (rSmTAChE [1]; [6]): 93.7%; SI (Sm/Hs) [2]: 5.36; IC50 ([2]; IC50 (µM) rHsAChE): 7.09 µM
O=C(O)C1(C(=O)O)CCC1.[NH2-].[NH2-].[Pt+2] [BRD-K90947825-001-02-7]		decreasing	69.15	70.08	68.22	Data Mode (curve class), rHsAChE [2]: decreasing (weakly active); IC50 [2, 7]: > 38 µM; IC50 (rSmTAChE [3]; [8]): 35.4 µM
O=C(C[C@H]1C[C@H]2c3cc(NC(=O)NC4CCCC4)ccc3O[C@H]2[C@@H](CO)O1)NCc1ccccc1F [BRD-K64460391-001-01-9]			88.85	89.69	88.02	rHsAChE Data Mode [2]: inactive; rSmTAChE Data Mode (rSmTAChE [3]): decreasing (weakly active)
COc1ccc(NC(=O)Nc2ccc3c(c2)[C@H]2C[C@@H](CC(=O)NCc4ccccn4)O[C@@H](CO)[C@H]2O3)cc1 [BRD-K46319090-001-01-4]			89.33	88.58	90.08	rHsAChE Data Mode [2]: inactive; rSmTAChE Data Mode (rSmTAChE [3]): decreasing; IC50 (rSmTAChE [3]; read-out: rSmTAChE qAC50): 37.8 µM
CC(C)(C#N)c1ccc(N2C(=O)OCc3cnc4ccc(-c5cnc6ccccc6c5)cc4c32)cc1 [BRD-K24556407-001-02-3]		inactive	72.65	73.71	71.58	Data Mode (curve class), rHsAChE [2]: inactive
CCCCCCCCCCCCCCCC[N+](C)(C)CCN(Cc1ccc(OC)cc1)c1ncccn1 [Thonzonium bromide, reference compound]	decreasing	decreasing				inhibition at 20 µM (rSmTAChE [1]; [6]): 67%; SI (Sm/Hs) [2]: 2.92; IC50 ([2]; IC50 (µM) rHsAChE): 0.38 µM
Cc1cc(OCCCS(C)(=O)=O)cc(C)c1-c1cccc(COc2ccc3c(c2)OC[C@H]3CC(=O)O)c1 [TAK-875, reference compound]	decreasing (weakly active)	decreasing				inhibition at 20 µM (rSmTAChE [1]; [4]): 65%; SI (Hs/Sm) (rSmTAChE [3]): 2.25
Cc1cc(SCc2sc(-c3ccc(C(F)(F)F)cc3)nc2C)ccc1OCC(=O)O [BRD-K14880289-001-03-0]		decreasing	75.45	71.99	78.91	Data Mode (curve class), rHsAChE [2]: decreasing; IC50 [2, 7]: 10.5 µM; IC50 (rSmTAChE [3]; [8]): 16.4 µM
C[C@H](CO)N1C[C@H](C)[C@@H](CN(C)C(=O)Nc2cc(F)ccc2F)Oc2cc(-c3cccc(C#N)c3)ccc2S1(=O)=O [BRD-K72311435-001-01-2]			61.10	61.21	60.99	rHsAChE Data Mode [2]: decreasing (weakly active); rSmTAChE Data Mode (rSmTAChE [3]): inactive

— PMC12154458, “High-Throughput Screens of Repurposing Hub and DOS Chemical Libraries Reveal Compounds with Novel and Potent Inhibitory Activity Against the Essential Non-Neuronal Acetylcholinesterase of Schistosoma mansoni (SmTAChE)” (International Journal of Molecular Sciences, 2025)
